ChEMBL document CHEMBL1201862, “PubChem BioAssay data set” (2004)
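Protocol summary: plate cells (96-well), add compound at 5 concentrations, incubate 48 h, interpolate endpoints linearly. GI50: concentration for 50% inhibition of growth.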 Activity calls are given as the source filed them. Rule as the data show it: active = GI50 up to about 1.1 µM and inactive = higher.

Experiments:
Experiment in all cases: growth of human tumour cells (NCI), 48 h
[1] = tested on: OVCAR-8
[2] = tested on: IGROV-1
[3] = tested on: SK-MEL-2
[4] = tested on: NCI-H226
[5] = tested on: CAKI-1
[6] = tested on: LOX IMVI
[7] = tested on: SN12C
[8] = tested on: MDA-N
[9] = tested on: HOP-62
[10] = tested on: COLO 205
[11] = tested on: MDA-MB-231
[12] = tested on: SF-295
[13] = tested on: DU-145
[14] = tested on: TK-10
[15] = tested on: EKVX
[16] = tested on: M14
[17] = tested on: HCT-116
[18] = tested on: SF-268
[19] = tested on: Malme-3M
[20] = tested on: SF-539

Measured: GI50

N#Cc1c(Cl)cc(C#N)n2c1nc1ccccc12
inactive: [1] 5.92 µM | [2] 14.6 µM | [3] 17 µM | [4] 33.7 µM | [5] 5.64 µM | [6] 2.5 µM | [7] 19.4 µM | [8] 10.6 µM | [9] 21.6 µM | [10] 4.4 µM | [11] 8.87 µM | [12] 15.3 µM | [13] 20.8 µM | [14] 13.2 µM | [15] 20.7 µM | [16] 9.71 µM | [17] 4.11 µM | [18] 5.6 µM | [19] 5.35 µM | [20] 7.24 µM
